{"source": "patent US20020072474A1", "about": "“Herbicidal compositions” (priority 2000, published 2002)", "key": {"AVEFA (Avena fatua)": {"test_system": "AVEFA (Avena fatua)", "experiment": "Activity against grass weeds, post-emergence spray in pots in controlled-environment cabinet, visual scoring", "format": "in vivo", "conditions": "mesosulfuron-methyl 60 g a.i./ha (Silwet L77 50 g a.i./ha, sodium lactate 150 g a.i./ha where present); sprayed four weeks after sowing, water 300 l/ha; visual scoring 14 days after application, 0% = no damage to 100% = all plants dead", "experimental": "(§1) The individual components herbicide, surfactant and humectant as stated in Table 1 with regard to the application rates were added with stirring to a water application rate of 300 I/ha so that a homogeneous spray mixture was formed. The herbicide employed was mesosulfuron-methyl as 20 percent water-dispersible powder. The surfactant used was Silwet®L77 (Wacker) and the humectant used was sodium lactate as 50 percent aqueous solution (Merck KGaA, Darmstadt). Seeds of the harmful plants AVEFA and LOLMU were sown in a sandy loam soil in round pots type 13 in a controlled-environment cabinet and watered slightly. During the entire experiment period, the substrate only received minimal irrigation. A daytime temperature of 18° C. and a night time temperature of 16° C. were adhered to, a uniform day length of 16 hours being achieved by additional illumination with sodium vapor lamps (approx. 7000 lux). The relative atmospheric humidity was 50%. Four weeks after sowing, the plants were treated on a laboratory spray conveyor with the spray mixture which had been prepared in accordance with Example 1. The water application rate for the spray application of the preparations was 300 I/ha. After the treatment, the plants were returned to the controlled-environment cabinet. […]"}, "[1]": {"test_system": "LOLMU (Lolium multiflorum)", "experiment": "Activity against grass weeds, post-emergence spray in pots in controlled-environment cabinet, visual scoring", "format": "in vivo", "conditions": "mesosulfuron-methyl 60 g a.i./ha (Silwet L77 50 g a.i./ha, sodium lactate 150 g a.i./ha where present); sprayed four weeks after sowing, water 300 l/ha; visual scoring 14 days after application, 0% = no damage to 100% = all plants dead", "experimental": "as §1"}}, "data": [{"smiles": "COC(=O)c1ccc(CNS(C)(=O)=O)cc1S(=O)(=O)NC(=O)Nc1nc(OC)cc(OC)n1", "note": "[Mesosulfuron, mesosulfuron-methyl]", "values": [{"measurement": "Damage in % AVEFA", "setting": "AVEFA (Avena fatua)", "value": 22, "unit": "%"}, {"measurement": "Damage in % LOLMU", "setting": "[1]", "value": 18, "unit": "%"}]}]}
